These results are taken from patent publication US12247227B2, “Methods relating to intestinal organ-on-a-chip” (PRESIDENT AND FELLOWS OF HARVARD COLLEGE, priority 2016, dated 2025).

Data set [1] concerns small intestine-on-chip (primary human intestinal epithelium with or without HIMEC endothelium). The source says: As used herein, “differentially permeable”, e.g., in reference to an intestinal barrier, refers to the intestinal barrier displaying a resistance to the passage of certain molecules as compared to monolayers of, e.g., endothelial cells or undifferentiated intestinal epithelial cells. […] Such assays are described in the Examples herein in detail. Briefly, the apical side of the intestinal barrier is contacted with one or more tracer molecules and the concentration of the tracer later found on the basal side of the intestinal barrier.
• PROCEDURE. […]
Intestinal functional assessment and cytokine measurements. […] The concentration of dye that diffused through the membrane into endothelial channel was measured in the effluent, and apparent paracellular permeability (Papp) was calculated using the following formula:
[formula] where Vrec is volume receiver (endothelial compartment), Crec concentration receiver, A the seeded area and Cdon concentration donor (epithelial compartment). Cytokines released in the medium were quantified using U-PLEX Biomarker Assays for human Fractalkine, GM-CSF, IFN-γ, IL-1α, IL-1β, IL-6, IL-8, and IL-10 (Mesoscale Discovery).

Data set [2] concerns enteroid fragments (primary intestinal epithelial cells). Kind of data set: Epithelial cell recovery and on-chip seeding of enteroid fragments generated with or without ROCK inhibitor. The data set is classed as cell-based, human. The following applies: ROCK inhibitor present during fragment isolation and seeding, images 24 h post seeding (FIG. 15). As to the method:
Representative images showing device seeded with enteroid fragments generated in the absence (−ROCK inhibitor) or presence (+ROCK inhibitor) were acquired 24 h post seeding. Equal cell seeding density and time was used for both of the conditions tested.
Prior to the establishment of primary cell culture in organ-on-chip microfluidic device, the hydrophobic PDMS surface is activated by oxygen plasma treatment and aminized with (3-aminopropyl)[…] silane (APTMS, SIGMA 281778). This surface functionalization allows for an improved cell attachment and facilitates long-term culture of intestinal stem cells and their progeny. Next ECM coating solution composed of 1% Matrigel (BD Corning, 356231) and 200 ug/ml Collagen I (BD Corning 3.36 mg/mL; 354226) is introduced in both the upper and the lower microfluidic channel and device is placed in a humidified 37° C. incubator for the minimum of 2 hours. Then human intestinal microvascular endothelial cells, e.g., purchased from ScienCell (Catalog #2900), are seeded on the bottom side of the porous stretchable PDMS membrane that separates two parallel microchannels of the organ-on-chip device. […]

For Lucifer Yellow, in data set [1], the Optimal Papp (apparent permeability) for small intestine-on-chip is approximately 1 ×10⁻⁶ cm/s and the Papp is on record as 1-2×10^−6.
On to `C[C@@H](N)[C@H]1CC[C@H](C(=O)Nc2ccncc2)CC1` [ROCK inhibitor, Y-27632], for which, in data set [2], the “epithelial cell recovery and on-chip seeding” value is “Improved epithelial cells recovery and on-chip seeding”.
